# In patent US20100092526A1, “NANOEMULSION THERAPEUTIC COMPOSITIONS AND METHODS OF USING THE SAME” (NanoBio Corporation, priority 2008, published 2010):
# “And” between values parts separate entries of the source, which are not always exact repeats. Equal values may be shown once. Read-outs that look alike come from different tables or passages of the source.
# Key:
# Assay type in all cases: cell-based
# [1] = system: methicillin-resistant Staphylococcus aureus (MRSA); assay: Susceptibility (MIC/MBC) of MRSA clinical isolates; conditions: for MBC50(15) / MIC50(15) / MBC90(26) / MIC90(26): 29 MRSA clinical isolates; for MBC50(15) / MIC50(15): rank 15; for MBC90(26) / MIC90(26): rank 26
# [2] = system: Stenotrophomonas strains; assay: Checkerboard synergy study (FIC/FBC index); conditions: combined with P4075EC+EDTA
# [3] = system: Acinetobacter strains; assay: Checkerboard synergy study (FIC/FBC index); conditions: combined with P4075EC+EDTA
# [4] = system: Burkholderia strains; assay: Checkerboard synergy study (FIC/FBC index); conditions: combined with P4075EC+EDTA
# [5] = Staphylococcus aureus, MRSA isolates, read-out: MIC90
# [6] = individual MRSA clinical isolates, values listed by rank order 1-29
# [7] = silver nitrate column, individual MRSA clinical isolates by rank order 1-29
# [8] = share of Stenotrophomonas strains with synergy
# [9] = share of 10 Acinetobacter strains with synergy
# [10] = share of ten Burkholderia strains with synergy
smiles,measurement,setting,value
COc1cc(Cc2cnc(N)nc2N)cc(OC)c1OC [trimethoprim],MIC90,[1]; [5],0.5 µg/mL
C[C@H]1c2cccc(O)c2C(=O)C2=C(O)[C@]3(O)C(=O)C(C(N)=O)=C(O)[C@@H](N(C)C)[C@@H]3[C@@H](O)[C@@H]21 [Dox],MBC50(15),[1],>4 µg/mL
same,MIC50(15),[1],0.25 µg/mL
same,MBC90(26),[1],>64 µg/mL
same,MIC90(26),[1],4 µg/mL
same,MBC,[1]; [6],>128 μg/ml and >64 μg/ml (4×) and >4 μg/ml (21×) and 2 μg/ml and 1 μg/ml (2×)
same,MIC,[1]; [6],4 μg/ml (4×) and 0.25 μg/ml (25×)
C[C@H]1COc2c(N3CCN(C)CC3)c(F)cc3c(=O)c(C(=O)O)cn1c23 [Levo],MBC50(15),[1],16 µg/mL
same,MIC50(15),[1],8 µg/mL
same,MBC90(26),[1],>64 µg/mL
same,MIC90(26),[1],32 µg/mL
same,MBC,[1]; [6],>64 μg/ml (6×) and 64 μg/ml (2×) and >32 μg/ml and 32 μg/ml (5×) and 16 μg/ml (3×) and 8 μg/ml (4×) and 4 μg/ml and 1 μg/ml and 0.5 μg/ml and 0.25 μg/ml (5×)
same,MIC,[1]; [6],>64 μg/ml (2×) and 32 μg/ml (5×) and 16 μg/ml (4×) and 8 μg/ml (5×) and 4 μg/ml (5×) and 2 μg/ml and 0.5 μg/ml and 0.25 μg/ml (3×) and 0.125 μg/ml (3×)
CN[C@H](CC(C)C)C(=O)N[C@H]1C(=O)N[C@@H](CC(N)=O)C(=O)N[C@H]2C(=O)N[C@H]3C(=O)N[C@H](C(=O)N[C@H](C(=O)O)c4cc(O)cc(O)c4-c4cc3ccc4O)[C@H](O)c3ccc(c(Cl)c3)Oc3cc2cc(c3O[C@@H]2O[C@H](CO)[C@@H](O)[C@H](O)[C@H]2O[C@H]2C[C@](C)(N)[C@H](O)[C@H](C)O2)Oc2ccc(cc2Cl)[C@H]1O [vancomycin],cidality,"[1]; MRSA, ratio of MBC90/MIC90",bactericidal (A compound or nanoemulsion is defined as bactericidal if its MBC/MIC ratio was ˜4)
same,MIC90,"[1]; Staphylococcus aureus, MRSA",1 µg/mL
O=[N+]([O-])[O-].[Ag+] [silver nitrate],MIC90,[1]; MRSA isolates,0.00063%
same,MBC50(15),[1]; silver nitrate column,0.0025 µg/mL
same,MIC50(15),[1]; silver nitrate column,0.00031 µg/mL
same,MBC90(26),[1]; silver nitrate column,>0.01 µg/mL
same,MIC90(26),[1]; silver nitrate column,0.00063 µg/mL
same,MBC,[1]; [7],0.01 μg/ml and >0.01 μg/ml (3×) and >0.005 μg/ml (3×) and 0.005 μg/ml and 0.0025 μg/ml (12×) and 0.00125 μg/ml (9×)
same,MIC,[1]; [7],0.0025 μg/ml and 0.00125 μg/ml (2×) and 0.00626 μg/ml (7×) and 0.00312 μg/ml (19×)
CC(=O)O.NCc1ccc(S(N)(=O)=O)cc1 [Maf. Acet],MIC50(15),[1],>128 µg/mL
same,MIC90(26),[1],>128 µg/mL
same,MIC,[1]; [6],>128 μg/ml (28×) and 128 μg/ml
CC[C@H]1OC(=O)[C@H](C)[C@@H](O[C@H]2C[C@@](C)(OC)[C@@H](O)[C@H](C)O2)[C@H](C)[C@@H](O[C@@H]2O[C@H](C)C[C@H](N(C)C)[C@H]2O)[C@](C)(O)C[C@@H](C)C(=O)[C@H](C)[C@@H](O)[C@]1(C)O [Eryth],MIC50(15),[1],64 µg/mL
same,MBC,[1]; [6],64 μg/ml and >4 μg/ml (4×)
same,MIC,[1]; [6],64 μg/ml (6×) and 32 μg/ml (3×) and 16 μg/ml and 8 μg/ml and 0.25 μg/ml (4×)
Cc1cc(NS(=O)(=O)c2ccc(N)cc2)no1 [sulfamethoxazole],MIC90,[1]; [5],4 µg/mL
C/C(=C\C(=O)OCCCCCCCCC(=O)O)C[C@@H]1OC[C@H](C[C@@H]2O[C@H]2[C@@H](C)[C@H](C)O)[C@@H](O)[C@H]1O [Mup],MBC50(15),[1],>2 µg/mL
same,MIC50(15),[1],0.25 µg/mL
same,MBC90(26),[1],>64 µg/mL
same,MIC90(26),[1],>64 µg/mL
same,MBC,[1]; [6],>64 μg/ml (9×) and >8 μg/ml and >4 μg/ml (5×) and >2 μg/ml (11×) and 1 μg/ml (3×)
same,MIC,[1]; [6],>64 μg/ml (8×) and 16 μg/ml and 0.25 μg/ml (9×) and 0.125 μg/ml (11×)
CC(=O)O.NCc1ccc(S(N)(=O)=O)cc1 [Maf. Acet.],MBC50(15),[1],>128 µg/mL
same,MBC90(26),[1],>128 µg/mL
same,MBC,[1]; [6],>128 µg/mL
NC[C@H]1O[C@H](O[C@H]2[C@H](O)[C@@H](O[C@H]3O[C@H](CO)[C@@H](O)[C@H](N)[C@H]3O)[C@H](N)C[C@@H]2N)[C@H](N)C[C@@H]1O [Tobra],FBC,[2]; isolate NB42,2.15
same,FIC,[2]; isolate NB42,0.14
same,Synergy (FBC),[2]; isolate NB42,indifferent
same,Synergy (FIC),[2]; isolate NB42,yes
same,FBC,[2]; isolate NB43,2.29
same,FIC,[2]; isolate NB43,1.40
same,Synergy (FBC),[2]; isolate NB43,indifferent
same,Synergy (FIC),[2]; isolate NB43,indifferent
same,FBC,[2]; isolate NB44,2.86
same,FIC,[2]; isolate NB44,1.5
same,Synergy (FBC),[2]; isolate NB44,indifferent
same,Synergy (FIC),[2]; isolate NB44,indifferent
same,FBC,[2]; isolate NB45,1.50
same,FIC,[2]; isolate NB45,0.97
same,Synergy (FBC),[2]; isolate NB45,indifferent
same,Synergy (FIC),[2]; isolate NB45,indifferent
same,FBC,[2]; isolate Steno 1,1.57
same,FIC,[2]; isolate Steno 1,0.79
same,Synergy (FBC),[2]; isolate Steno 1,indifferent
same,Synergy (FIC),[2]; isolate Steno 1,indifferent
same,FBC,[2]; isolate Steno 2,2.23
same,FIC,[2]; isolate Steno 2,0.04
same,Synergy (FBC),[2]; isolate Steno 2,indifferent
same,Synergy (FIC),[2]; isolate Steno 2,yes
same,FBC,[2]; isolate Steno 3,1.29
same,FIC,[2]; isolate Steno 3,0.79
same,Synergy (FBC),[2]; isolate Steno 3,indifferent
same,Synergy (FIC),[2]; isolate Steno 3,indifferent
same,FBC,[2]; isolate Steno 4,1.61
same,FIC,[2]; isolate Steno 4,1.72
same,Synergy (FBC),[2]; isolate Steno 4,indifferent
same,Synergy (FIC),[2]; isolate Steno 4,indifferent
same,FBC,[2]; isolate Steno 6,0.89
same,FIC,[2]; isolate Steno 6,0.59
same,Synergy (FBC),[2]; isolate Steno 6,indifferent
same,Synergy (FIC),[2]; isolate Steno 6,indifferent
same,FBC,[2]; isolate Steno 8,1.15
same,FIC,[2]; isolate Steno 8,0.63
same,Synergy (FBC),[2]; isolate Steno 8,indifferent
same,Synergy (FIC),[2]; isolate Steno 8,indifferent
same,% FBC Synergy,[2]; [8],0%
same,% FIC Synergy,[2]; [8],20%
same,FBC,[3]; isolate NB31,1.50
same,FIC,[3]; isolate NB31,0.98
same,Synergy (FBC),[3]; isolate NB31,no
same,Synergy (FIC),[3]; isolate NB31,indifferent
same,FBC,[3]; isolate NB32,1.79
same,FIC,[3]; isolate NB32,0.88
same,Synergy (FBC),[3]; isolate NB32,no
same,Synergy (FIC),[3]; isolate NB32,indifferent
same,FBC,[3]; isolate NB33,1.75
same,Synergy (FBC),[3]; isolate NB33,no
same,Synergy (FIC),[3]; isolate NB33,indifferent
same,FBC,[3]; isolate NB34,0.24
same,FIC,[3]; isolate NB34,0.41
same,Synergy (FBC),[3]; isolate NB34,yes
same,Synergy (FIC),[3]; isolate NB34,yes
same,FIC,[3]; isolate NB35,1.21
same,Synergy (FBC),[3]; isolate NB35,no
same,Synergy (FIC),[3]; isolate NB35,indifferent
same,FBC,[3]; isolate NB36,2.29
same,FIC,[3]; isolate NB36,3.30
same,Synergy (FBC),[3]; isolate NB36,no
same,Synergy (FIC),[3]; isolate NB36,indifferent
same,FBC,[3]; isolate NB37,1.72
same,FIC,[3]; isolate NB37,0.75
same,Synergy (FBC),[3]; isolate NB37,no
same,Synergy (FIC),[3]; isolate NB37,indifferent
same,FBC,[3]; isolate NB38,1.57
same,FIC,[3]; isolate NB38,1.05
same,Synergy (FBC),[3]; isolate NB38,no
same,Synergy (FIC),[3]; isolate NB38,indifferent
same,FBC,[3]; isolate NB39,3.52
same,FIC,[3]; isolate NB39,3.30
same,Synergy (FBC),[3]; isolate NB39,no
same,Synergy (FIC),[3]; isolate NB39,indifferent
same,FBC,[3]; isolate NB40,3.01
same,FIC,[3]; isolate NB40,3.01
same,Synergy (FBC),[3]; isolate NB40,no
same,Synergy (FIC),[3]; isolate NB40,indifferent
same,% FBC Synergy,[3]; [9],10%
same,% FIC Synergy,[3]; [9],10%
same,FBC,[4]; isolate NB21,0.48
same,FIC,[4]; isolate NB21,0.27
same,Synergy (FBC),[4]; isolate NB21,yes
same,Synergy (FIC),[4]; isolate NB21,yes
same,FBC,[4]; isolate NB22,1.23
same,FIC,[4]; isolate NB22,0.35
same,Synergy (FBC),[4]; isolate NB22,indifferent
same,Synergy (FIC),[4]; isolate NB22,yes
same,FBC,[4]; isolate NB23,1.09
same,FIC,[4]; isolate NB23,1.06
same,Synergy (FBC),[4]; isolate NB23,indifferent
same,Synergy (FIC),[4]; isolate NB23,indifferent
same,FBC,[4]; isolate NB24,1.36
same,FIC,[4]; isolate NB24,1.31
same,Synergy (FBC),[4]; isolate NB24,indifferent
same,Synergy (FIC),[4]; isolate NB24,indifferent
same,FBC,[4]; isolate NB25,0.99
same,FIC,[4]; isolate NB25,1.45
same,Synergy (FBC),[4]; isolate NB25,indifferent
same,Synergy (FIC),[4]; isolate NB25,indifferent
same,FBC,[4]; isolate NB26,0.92
same,FIC,[4]; isolate NB26,0.12
same,Synergy (FBC),[4]; isolate NB26,indifferent
same,Synergy (FIC),[4]; isolate NB26,yes
same,FBC,[4]; isolate NB27,1.27
same,FIC,[4]; isolate NB27,1.44
same,Synergy (FBC),[4]; isolate NB27,indifferent
same,Synergy (FIC),[4]; isolate NB27,indifferent
same,FBC,[4]; isolate NB28b,1.06
same,FIC,[4]; isolate NB28b,0.54
same,Synergy (FBC),[4]; isolate NB28b,indifferent
same,Synergy (FIC),[4]; isolate NB28b,yes
same,FBC,[4]; isolate NB29,0.07
same,FIC,[4]; isolate NB29,0.32
same,Synergy (FBC),[4]; isolate NB29,yes
same,Synergy (FIC),[4]; isolate NB29,yes
same,FBC,[4]; isolate NB30,0.54
same,FIC,[4]; isolate NB30,0.27
same,Synergy (FBC),[4]; isolate NB30,yes
same,Synergy (FIC),[4]; isolate NB30,yes
same,% FBC Synergy,[4]; [10],30%
same,% FIC Synergy,[4]; [10],50%
CCC[C@@H]1C[C@@H](C(=O)N[C@@H]([C@H]2O[C@H](SC)[C@H](O)[C@@H](O)[C@H]2O)[C@H](C)Cl)N(C)C1 [Clind],MBC50(15),[1],>64 µg/mL
same,MIC50(15),[1],>64 µg/mL
same,MBC90(26),[1],>64 µg/mL
same,MIC90(26),[1],>64 µg/mL
same,MBC,[1]; [6],>64 μg/ml (17×) and >2 μg/ml (10×) and 2 μg/ml and 1 μg/ml
same,MIC,[1]; [6],>64 μg/ml (17×) and 0.125 μg/ml (12×)
CN[C@H](CC(C)C)C(=O)N[C@H]1C(=O)N[C@@H](CC(N)=O)C(=O)N[C@H]2C(=O)N[C@H]3C(=O)N[C@H](C(=O)N[C@H](C(=O)O)c4cc(O)cc(O)c4-c4cc3ccc4O)[C@H](O)c3ccc(c(Cl)c3)Oc3cc2cc(c3O[C@@H]2O[C@H](CO)[C@@H](O)[C@H](O)[C@H]2O[C@H]2C[C@](C)(N)[C@H](O)[C@H](C)O2)Oc2ccc(cc2Cl)[C@H]1O [Vanco],MBC50(15),[1],1 µg/mL
same,MIC50(15),[1],1 µg/mL
same,MBC90(26),[1],2 µg/mL
same,MIC90(26),[1],1 µg/mL
same,MBC,[1]; [6],4 μg/ml (3×) and 2 μg/ml (7×) and 1 μg/ml (16×) and 0.5 μg/ml (3×)
same,MIC,[1]; [6],2 μg/ml and 1 μg/ml (20×) and 0.5 μg/ml (8×)
